From patent US20240158392A1 (Janssen Biotech, Inc., priority 2021, published 2024)
pIC50: −log10 of the molar value.

target: SIK2 (Homo sapiens, UniProt Q9H0K1); assay: SIK2 Enzymatic Assay High Version 2 (High ATP); type: biochemical; conditions: not given
Summary of the method: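 At room temperature, enzyme (6 nM, 2× final) was preincubated with compound for 30 min, then 6 mM ATP and 400 μM HDAC5tide (both 2× final) were added for 2 h. ADP formed was measured by ADP-Glo Max (2 h reagent, 1 h detection) using luminescence.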

Sequence of SIK2 (Q9H0K1 whole entry, species assumed): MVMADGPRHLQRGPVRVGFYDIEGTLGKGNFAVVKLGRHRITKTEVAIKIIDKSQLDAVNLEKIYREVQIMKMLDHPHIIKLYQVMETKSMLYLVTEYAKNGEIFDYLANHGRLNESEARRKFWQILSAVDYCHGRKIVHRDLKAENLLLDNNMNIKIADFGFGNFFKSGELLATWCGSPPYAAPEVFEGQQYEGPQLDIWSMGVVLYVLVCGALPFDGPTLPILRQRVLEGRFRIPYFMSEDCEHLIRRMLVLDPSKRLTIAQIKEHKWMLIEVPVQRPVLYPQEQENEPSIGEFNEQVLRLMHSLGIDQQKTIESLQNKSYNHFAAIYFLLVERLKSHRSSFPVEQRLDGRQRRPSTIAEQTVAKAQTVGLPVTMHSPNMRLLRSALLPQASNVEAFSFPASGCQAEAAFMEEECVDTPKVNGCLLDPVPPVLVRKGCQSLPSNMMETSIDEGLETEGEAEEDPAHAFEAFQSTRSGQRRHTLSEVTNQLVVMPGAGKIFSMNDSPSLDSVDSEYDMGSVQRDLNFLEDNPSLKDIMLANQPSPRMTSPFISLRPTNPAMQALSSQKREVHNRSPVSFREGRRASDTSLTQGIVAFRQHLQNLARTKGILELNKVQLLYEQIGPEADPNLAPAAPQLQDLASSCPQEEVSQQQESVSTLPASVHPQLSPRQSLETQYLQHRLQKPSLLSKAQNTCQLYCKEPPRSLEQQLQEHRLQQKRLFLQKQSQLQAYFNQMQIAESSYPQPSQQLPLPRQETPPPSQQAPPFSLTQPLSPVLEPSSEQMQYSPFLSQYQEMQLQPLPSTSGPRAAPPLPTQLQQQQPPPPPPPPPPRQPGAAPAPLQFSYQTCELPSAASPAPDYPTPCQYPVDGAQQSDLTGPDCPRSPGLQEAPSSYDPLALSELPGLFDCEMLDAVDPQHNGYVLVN

Compound	pIC50
Cc1cc(-c2ccn3nc(Nc4nccc(C)c4F)cc3c2)c(O[C@H]2C[C@H]3COC[C@@H](C2)N3)cn1 [Example 338, N-(3-fluoro-4-methyl-2-pyridyl)-5-[2-methyl-5-[[(1S,5R)-3-oxa-9-azabicyclo[3.3.1]nonan-7-yl]oxy]-4-pyridyl]pyrazolo[1,5-a]pyridin-2-amine]	8.49
Cc1cc(-c2ccn3nc(Nc4cc(C)nc(C)n4)cc3c2)c(O[C@H]2C[C@H]3COC[C@@H](C2)N3C#N)cn1 [Example 336, (1S,5R)-7-[[4-[2-[(2,6-dimethylpyrimidin-4-yl)amino]pyrazolo[1,5-a]pyridin-5-yl]-6-methyl-3-pyridyl]oxy]-3-oxa-9-azabicyclo[3.3.1]nonane-9-carbonitrile]	> 9.07
Cc1cc(-c2ccn3nc(Nc4ccnnc4)cc3c2)c(O[C@H]2C[C@H]3COC[C@@H](C2)N3)cn1 [Example 368, 5-[2-methyl-5-[[(1S,5R,7s)-3-oxa-9-azabicyclo[3.3.1]nonan-7-yl]oxy]-4-pyridyl]-N-pyridazin-4-yl-pyrazolo[1,5-a]pyridin-2-amine]	> 9.07
Cc1cc(-c2ccn3nc(Nc4cc(C)nc(C)n4)cc3c2)c(OC[C@@H]2CN(C)C(=O)N2)cn1 [Example 365, (4S)-4-[[4-[2-[(2,6-dimethylpyrimidin-4-yl)amino]pyrazolo[1,5-a]pyridin-5-yl]-6-methyl-3-pyridyl]oxymethyl]-1-methyl-imidazolidin-2-one]	> 9.07
Cc1cc(-c2ccn3nc(Nc4ccc(C(F)(F)F)cn4)cc3c2)c(O[C@H]2C[C@H]3COC[C@@H](C2)N3C)cn1 [Example 411, 5-[2-methyl-5-[[(1S,5R,7s)-9-methyl-3-oxa-9-azabicyclo[3.3.1]nonan-7-yl]oxy]-4-pyridyl]-N-[5-(trifluoromethyl)-2-pyridyl]pyrazolo[1,5-a]pyridin-2-amine]	8.82
Cc1cc(-c2ccn3nc(NC(=O)C4CC4)cc3c2)c(OC[C@H]2CCN2CC(F)(F)F)cn1 [Example 452, N-[5-[2-methyl-5-[[(2R)-1-(2,2,2-trifluoroethyl)azetidin-2-yl]methoxy]-4-pyridyl]pyrazolo[1,5-a]pyridin-2-yl]cyclopropanecarboxamide]	7.82
Cc1cc(-c2ccn3nc(NC(=O)C4CC4)cc3c2)c(O[C@@H]2CC[C@@H](O)C2)cn1 (stereo in doubt) [Example 569, (1*R, 3*R)—N-[5-[5-(3-hydroxycyclopentoxy)-2-methyl-4-pyridyl]pyrazolo[1,5-a]pyridin-2-yl]cyclopropanecarboxamide]	7.14

same assay, conditions: enzyme 6 nM, 6 mM ATP and 400 μM HDAC5tide (each 2× final concentration); 30 minutes pre-incubation, 2 hours; ADP-Glo Max luminescence; read-out: SIK2 high ATP IC50 (μM) (Test Example 2)

IC50 [µM]	Compound
0.0304	Cc1cc(-c2ccn3nc(NC(=O)C4CC4)cc3c2)c(OC[C@@H](N)c2ccccc2)cn1 (single isomer, unassigned) [Example 467]
0.00171	COC(=O)c1ccc(Nc2cc3cc(-c4cc(C)ncc4OCC(C)(C)O)ccn3n2)cc1OC [Example 642, methyl 4-[[5-[5-(2-hydroxy-2-methyl-propoxy)-2-methyl-4-pyridyl]pyrazolo[1,5-a]pyridin-2-yl]amino]-2-methoxy-benzoate]
0.0381	CCc1cc(-c2ccn3nc(Nc4cc(C)nc(C)n4)cc3c2)c(OCC(C)(C)C#N)cn1 [Example 328, 3-[[4-[2-[(2,6-dimethylpyrimidin-4-yl)amino]pyrazolo[1,5-a]pyridin-5-yl]-6-ethyl-3-pyridyl]oxy]-2,2-dimethyl-propanenitrile]
0.0371	Cc1cc(-c2ccn3nc(Nc4cc(C)nc(C)n4)cc3c2)c(O[C@H]2CC[C@@H](C#N)CC2)cn1 [Example 556, (1s,4s)-4-((4-(2-((2,6-dimethylpyrimidin-4-yl)amino)pyrazolo[1,5-a]pyridin-5-yl)-6-methylpyridin-3-yl)oxy)cyclohexane-1-carbonitrile]
0.0416	Cc1cc(-c2ccn3nc(Nc4cc(C)nc(C)n4)cc3c2)c(OC[C@@H](O)C2(C)CC2)cn1 (single isomer, unassigned) [Example 549, (*S)-2-[[4-[2-[(2,6-dimethylpyrimidin-4-yl)amino]pyrazolo[1,5-a]pyridin-5-yl]-6-methyl-3-pyridyl]oxy]-1-(1-methylcyclopropyl)ethanol]
0.204	CC#Cc1cc(-c2ccn3nc(Nc4cc(C)nc(C)n4)cc3c2)c(OC[C@@H]2OCC[C@H]2O)cn1 [Example 671, (2S,3R)-2-[[4-[2-[(2,6-dimethylpyrimidin-4-yl)amino]pyrazolo[1,5-a]pyridin-5-yl]-6-prop-1-ynyl-3-pyridyl]oxymethyl]tetrahydrofuran-3-ol]
0.00119	Cc1cc(Nc2cc3cc(-c4cc(OC(F)F)ncc4OC[C@H]4CC(=O)NC4(C)C)ccn3n2)nc(C)n1 (single isomer, unassigned) [Example 739, (*S)-4-[[6-(difluoromethoxy)-4-[2-[(2,6-dimethylpyrimidin-4-yl)amino]pyrazolo[1,5-a]pyridin-5-yl]-3-pyridyl]oxymethyl]-5,5-dimethyl-pyrrolidin-2-one]
0.014	Cc1cc(-c2ccn3nc(Nc4cc(C)nc(C)n4)cc3c2)c(OCC2CC(=O)N(C)C2)cn1 (single isomer, unassigned) [Example 547, (*R)-4-[[4-[2-[(2,6-dimethylpyrimidin-4-yl)amino]pyrazolo[1,5-a]pyridin-5-yl]-6-methyl-3-pyridyl]oxymethyl]-1-methyl-pyrrolidin-2-one]
0.0244	CC(C)(C#N)COc1cnc(OC(F)F)cc1-c1ccn2nc(NC(=O)C3CC3)cc2c1 [Example 665, N-[5-[5-(2-cyano-2-methyl-propoxy)-2-(difluoromethoxy)-4-pyridyl]pyrazolo[1,5-a]pyridin-2-yl]cyclopropanecarboxamide]
0.00795	Cc1cc(-c2ccn3nc(Nc4cnn(C)c4)cc3c2)c(O[C@H]2CC[C@](C)(O)CC2)cn1 [Example 163, (1r,4r)-1-methyl-4-((6-methyl-4-(2-((1-methyl-1H-pyrazol-4-yl)amino)pyrazolo[1,5-a]pyridin-5-yl)pyridin-3-yl)oxy)cyclohexan-1-ol]
0.0662	Cc1cc(Nc2cc3cc(-c4cc(C(F)F)ncc4OCC(C)(C)O)ccn3n2)nc(C)n1 [Example 493, 1-[[6-(difluoromethyl)-4-[2-[(2,6-dimethylpyrimidin-4-yl)amino]pyrazolo[1,5-a]pyridin-5-yl]-3-pyridyl]oxy]-2-methyl-propan-2-ol]
0.016	Cc1cc(-c2ccn3nc(Nc4cc(C)nc(C)n4)cc3c2)c(OC[C@@H]2COC3(CCCC3)O2)cn1 (single isomer, unassigned) [Example 543, (*R)—N-(2,6-dimethylpyrimidin-4-yl)-5-[5-(6,9-dioxaspiro[4.4]nonan-8-ylmethoxy)-2-methyl-4-pyridyl]pyrazolo[1,5-a]pyridin-2-amine]
0.021	Cn1nc(Nc2cc3cc(-c4cc(OCC(F)F)ncc4OCC(C)(C)C#N)ccn3n2)ccc1=O [Example 697, 3-[[6-(2,2-difluoroethoxy)-4-[2-[(1-methyl-6-oxo-pyridazin-3-yl)amino]pyrazolo[1,5-a]pyridin-5-yl]-3-pyridyl]oxy]-2,2-dimethyl-propanenitrile]
0.00921	Cc1cc(-c2ccn3nc(Nc4cc(C)nc(C)n4)cc3c2)c(O[C@H]2CCNC2)cn1 [Example 276, N-(2,6-dimethylpyrimidin-4-yl)-5-[2-methyl-5-[(3S)-pyrrolidin-3-yl]oxy-4-pyridyl]pyrazolo[1,5-a]pyridin-2-amine]
0.0444	Cc1cc(-c2ccn3nc(NC(=O)C4CC4)cc3c2)c(OCC(C)(N)C(F)(F)F)cn1 (single isomer, unassigned) [Example 160, (*S)—N-[5-[5-(2-amino-3,3,3-trifluoro-2-methyl-propoxy)-2-methyl-4-pyridyl]pyrazolo[1,5-a]pyridin-2-yl]cyclopropanecarboxamide]
0.00766	Cc1cc(-c2ccn3nc(Nc4ccc(C(F)(F)F)cn4)cc3c2)c(OC[C@@H]2CNCCO2)cn1 [Example 424, 5-[2-methyl-5-[[(2S)-morpholin-2-yl]methoxy]-4-pyridyl]-N-[5-(trifluoromethyl)-2-pyridyl]pyrazolo[1,5-a]pyridin-2-amine]
0.00265	Cc1cc(-c2ccn3nc(Nc4cc(C)nc(C)n4)cc3c2)c(OCC2CC(=O)N(C)C2(C)C)cn1 (racemic) [Example 325, (rac)-4-[[4-[2-[(2,6-dimethylpyrimidin-4-yl)amino]pyrazolo[1,5-a]pyridin-5-yl]-6-methyl-3-pyridyl]oxymethyl]-1,5,5-trimethyl-pyrrolidin-2-one]
0.0606	Cc1cc(-c2ccn3nc(Nc4cc(C)nc(C)n4)cc3c2)c(OC[C@@H]2COC(C)(C)C2)cn1 (single isomer, unassigned) [Example 539, (*R)—N-(2,6-dimethylpyrimidin-4-yl)-5-[5-[(5,5-dimethyltetrahydrofuran-3-yl)methoxy]-2-methyl-4-pyridyl]pyrazolo[1,5-a]pyridin-2-amine]
0.00773	CC#Cc1cc(-c2ccn3nc(Nc4ccn(C)n4)cc3c2)c(OC[C@H]2OCC[C@@H]2O)cn1 [Example 301, (2R,3S)-2-[[4-[2-[(1-methylpyrazol-3-yl)amino]pyrazolo[1,5-a]pyridin-5-yl]-6-prop-1-ynyl-3-pyridyl]oxymethyl]tetrahydrofuran-3-ol]
0.0306	Cc1cc(-c2ccn3nc(Nc4ccc(C(=O)NC(C)C)c(C)c4)cc3c2)c(OCC(C)(C)O)cn1 [Example 345, 4-[[5-[5-(2-hydroxy-2-methyl-propoxy)-2-methyl-4-pyridyl]pyrazolo[1,5-a]pyridin-2-yl]amino]-N-isopropyl-2-methyl-benzamide]
0.0641	Cc1cc(-c2ccn3nc(Nc4cc(C)c(C)nn4)cc3c2)c(OCC(C)(C)O)cn1 [Example 201, 1-[[4-[2-[(5,6-dimethylpyridazin-3-yl)amino]pyrazolo[1,5-a]pyridin-5-yl]-6-methyl-3-pyridyl]oxy]-2-methyl-propan-2-ol]

Compound	IC50 [µM]
CC#Cc1cc(-c2ccn3nc(NC(=O)C4CC4)cc3c2)c(O[C@H]2C[C@H](N)C2)cn1 [Example 435, N-(5-(5-((1r,3r)-3-aminocyclobutoxy)-2-(prop-1-yn-1-yl)pyridin-4-yl)pyrazolo[1,5-a]pyridin-2-yl)cyclopropanecarboxamide]	< 0.000847
